Patent US20260207578A1, “COMPOUND BASED ON SULFUR/OXYGEN SUBSTITUTED GLUTARIMIDE-BASED ISOINDOLINONE SKELETON AND USE THEREOF” (Gluetacs Therapeutics (Shanghai) Co., LTD., priority 2022, published 2026)

Assays:
[1] = biological target: T1, CK1α (Homo sapiens, UniProt P48729+Q96SW2); test: Western-blot assay, substrate protein in hPBMCs; assay type: cell-based; conditions: hPBMC cells, 24 hours, tested at 50 nM and 500 nM, table does not say which
T1 construct: endogenous in cells; host or cells: human PBMCs (Milecell Biotechnologies)
T1 sequence (P48729 whole entry): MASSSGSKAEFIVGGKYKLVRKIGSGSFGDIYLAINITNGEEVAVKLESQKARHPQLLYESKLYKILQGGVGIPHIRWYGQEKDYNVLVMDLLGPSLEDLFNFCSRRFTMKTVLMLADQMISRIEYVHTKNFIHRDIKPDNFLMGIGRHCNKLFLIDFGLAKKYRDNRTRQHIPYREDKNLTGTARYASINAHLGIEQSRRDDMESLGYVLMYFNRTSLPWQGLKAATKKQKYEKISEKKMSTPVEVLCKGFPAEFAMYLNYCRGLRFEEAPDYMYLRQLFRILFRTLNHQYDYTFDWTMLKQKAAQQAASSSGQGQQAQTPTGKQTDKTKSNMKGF
T1 sequence (Q96SW2 whole entry): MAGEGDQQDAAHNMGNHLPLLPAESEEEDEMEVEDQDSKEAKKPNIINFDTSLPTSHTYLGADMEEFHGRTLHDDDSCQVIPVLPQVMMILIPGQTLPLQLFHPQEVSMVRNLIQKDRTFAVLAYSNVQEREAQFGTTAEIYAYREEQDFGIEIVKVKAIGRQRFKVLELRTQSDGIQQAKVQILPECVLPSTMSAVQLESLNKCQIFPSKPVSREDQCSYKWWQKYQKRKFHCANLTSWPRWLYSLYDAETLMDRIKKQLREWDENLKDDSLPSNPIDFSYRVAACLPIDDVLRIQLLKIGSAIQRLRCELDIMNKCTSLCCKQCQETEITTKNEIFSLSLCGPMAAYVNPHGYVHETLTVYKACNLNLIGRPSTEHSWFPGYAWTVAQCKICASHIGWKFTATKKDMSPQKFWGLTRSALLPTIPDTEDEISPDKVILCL
T1 sequence (Q16531 whole entry partner): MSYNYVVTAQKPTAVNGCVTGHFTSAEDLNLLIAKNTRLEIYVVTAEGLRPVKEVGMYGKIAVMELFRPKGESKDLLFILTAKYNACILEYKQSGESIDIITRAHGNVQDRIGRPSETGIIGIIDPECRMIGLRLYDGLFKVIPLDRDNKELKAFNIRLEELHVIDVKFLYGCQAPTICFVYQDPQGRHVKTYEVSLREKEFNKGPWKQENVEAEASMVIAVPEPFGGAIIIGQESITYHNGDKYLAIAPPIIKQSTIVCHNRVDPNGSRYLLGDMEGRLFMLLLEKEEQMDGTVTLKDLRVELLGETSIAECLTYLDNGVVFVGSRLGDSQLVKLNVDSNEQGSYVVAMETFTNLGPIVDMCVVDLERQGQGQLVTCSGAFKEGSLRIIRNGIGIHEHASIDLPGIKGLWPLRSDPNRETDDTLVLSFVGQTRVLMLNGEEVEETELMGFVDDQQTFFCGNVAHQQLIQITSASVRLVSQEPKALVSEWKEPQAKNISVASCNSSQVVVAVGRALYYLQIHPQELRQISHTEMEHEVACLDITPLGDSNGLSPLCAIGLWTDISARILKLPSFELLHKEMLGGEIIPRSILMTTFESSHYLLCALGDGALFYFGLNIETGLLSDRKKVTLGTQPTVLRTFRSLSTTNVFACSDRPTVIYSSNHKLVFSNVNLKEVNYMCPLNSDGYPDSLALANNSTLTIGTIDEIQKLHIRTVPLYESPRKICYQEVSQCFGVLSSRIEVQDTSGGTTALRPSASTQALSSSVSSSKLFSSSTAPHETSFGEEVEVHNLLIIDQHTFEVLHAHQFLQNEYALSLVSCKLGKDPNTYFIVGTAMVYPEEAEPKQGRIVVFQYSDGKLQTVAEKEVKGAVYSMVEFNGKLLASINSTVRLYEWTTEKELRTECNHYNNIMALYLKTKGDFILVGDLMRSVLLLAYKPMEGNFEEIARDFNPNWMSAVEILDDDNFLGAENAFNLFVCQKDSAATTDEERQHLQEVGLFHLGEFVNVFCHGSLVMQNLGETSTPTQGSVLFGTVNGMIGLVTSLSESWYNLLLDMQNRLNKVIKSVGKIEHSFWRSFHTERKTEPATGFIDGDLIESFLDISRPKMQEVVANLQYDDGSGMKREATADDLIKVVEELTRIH
Experimental: (§1) The effect of the compounds of the present disclosure on the expression of target proteins in cells was detected using conventional Western blot analysis.
(§2) Human peripheral blood mononuclear cells (hPBMCs) at a density of 1×10^6 cells/mL were thawed according to the PBMC Recovery Protocol (Milecell Biotechnologies Inc, Shanghai).
(§3) After 24 hours of compounds treatment, cells were harvested and lysed in RIPA protein lysate containing phosphatase inhibitors on ice for 30-60 min, followed by centrifugation. The supernatant was aspirated as the extracted total cell protein. The protein concentration of the supernatant was determined using the conventional BCA (Bicinchoninic Acid) assay. The supernatant was then mixed with 4× SDS sample loading buffer, denatured at 95° C. for 5 minutes, and then subjected to SDS-PAGE electrophoresis on a polyacrylamide gel. Proteins were then transferred to a nitrocellulose (NC) membrane, blocked at room temperature for 1-2 h, and processed for antibody incubation and detection according to the manufacturer's instructions (Cell Signaling Technology).
(§4) Half-Maximal Degradation Concentration value (the drug concentration required for degrading proteins by 50%, abbreviated as DC50) reads method: comparing the grayscale values of Western blot bands from drug-treated samples with those from blank DMSO-treated controls, and identifying the drug concentration range at which the grayscale value is half that of the DMSO-treated control bands.
(§5) DC50 values can be calculated using ImageJ software to measure grayscale values of Western blot bands from drug-treated samples. The concentration-response curve is fitted to estimate the drug concentration corresponding to half the grayscale value.
(§6) Target protein remaining (%) refers to the percentage of target protein remaining in hPBMC cells after treatment with protein degrader compounds.
(§7) Calculation method for protein remaining (%): Use ImageJ software to measure grayscale values of Western blot bands from drug (protein degrader)-treated samples. The grayscale value of drug-treated bands is divided by that of internal control protein bands, and the resulting quotient is normalized to obtain the relative percentage of remaining target protein after protein degrader treatment.
(§8) Target protein degradation rate (%)=100%−target protein remaining (%).

[2] = biological target: T2, IKZF2 (Homo sapiens, UniProt Q96SW2+Q9UKS7); test: Western-blot assay, substrate protein in hPBMCs; assay type: cell-based; conditions: hPBMC cells, 24 hours, tested at 50 nM and 500 nM, table does not say which
T2 construct: endogenous in cells; host or cells: human PBMCs (Milecell Biotechnologies)
T2 sequence (Q9UKS7 whole entry): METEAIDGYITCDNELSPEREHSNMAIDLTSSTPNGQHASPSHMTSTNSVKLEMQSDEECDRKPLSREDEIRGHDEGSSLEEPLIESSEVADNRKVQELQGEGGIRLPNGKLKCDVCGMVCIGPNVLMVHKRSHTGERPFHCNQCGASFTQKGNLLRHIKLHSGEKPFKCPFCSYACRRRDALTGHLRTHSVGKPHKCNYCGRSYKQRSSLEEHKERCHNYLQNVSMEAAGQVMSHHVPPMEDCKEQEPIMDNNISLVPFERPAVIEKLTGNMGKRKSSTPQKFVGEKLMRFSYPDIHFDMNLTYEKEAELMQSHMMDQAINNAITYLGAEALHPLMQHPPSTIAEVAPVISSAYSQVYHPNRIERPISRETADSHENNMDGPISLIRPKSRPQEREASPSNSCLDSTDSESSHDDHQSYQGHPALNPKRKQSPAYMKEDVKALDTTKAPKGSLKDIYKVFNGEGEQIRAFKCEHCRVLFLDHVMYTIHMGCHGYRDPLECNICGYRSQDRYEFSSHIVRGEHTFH
T2 sequence (Q96SW2 whole entry): as the sequence (Q96SW2 whole entry) above
T2 sequence (Q16531 whole entry partner): as the sequence (Q16531 whole entry partner) above
Experimental: as §1, §2, §3, §4, §5, §6, §7, §8

[3] = biological target: T3, human Cereblon WT GST-tagged protein (Homo sapiens, UniProt Q96SW2); test: CRBN-binding affinity, HTRF (CEREBLON BINDING kit); conditions: displacement of Thalidomide-Re reagent, 3 hours at room temperature
T3 construct: purchased CISBIO 64BDCRBNPEH
T3 sequence (Q96SW2 whole entry): as the sequence (Q96SW2 whole entry) above
Experimental: The CEREBLON BINDING kits (specification: 10,000 tests; product number: Catalog #64BDCRBNPEH; CISBIO company) was used to determine the CRBN binding ability of the compounds to be tested through a HTRF method (homogeneous time-resolved fluorescence). The specific methods are as follows: • 1. […] Then, 2.5 μL of human Cereblon WT GST-tagged protein solution was added to each well. Finally, 5 μL of the thoroughly mixed Thalidomide-Re reagent and GST Eu antibody working solution were added to each of the aforementioned wells. […] The blank control wells were sequentially added with 2.5 μL of diluent #9 (1×) solution, 2.5 μL of PROTAC binding buffer, and 5 μL of thoroughly mixed Thalidomide-Re reagent and GST Eu antibody working solution. • 4.
OD 620 nmcompound is the absorbance value of each well of the compounds to be tested of the present disclosure at an emission wavelength of 620 nm. […] OD 620 nmcontrol is the absorbance value of the blank control well at an emission wavelength of 620 nm. […] OD 620 nmStd0 is the absorbance value of the solvent control well at an emission wavelength of 620 nm.

[4] = biological target: T4, Wee1 (Homo sapiens, UniProt P30291+Q96SW2); test: Western-blot assay, substrate protein in hPBMCs; assay type: cell-based; conditions: hPBMC cells, 24 hours, tested at 50 nM and 500 nM, table does not say which
T4 construct: endogenous in cells; host or cells: human PBMCs (Milecell Biotechnologies)
T4 sequence (P30291 whole entry): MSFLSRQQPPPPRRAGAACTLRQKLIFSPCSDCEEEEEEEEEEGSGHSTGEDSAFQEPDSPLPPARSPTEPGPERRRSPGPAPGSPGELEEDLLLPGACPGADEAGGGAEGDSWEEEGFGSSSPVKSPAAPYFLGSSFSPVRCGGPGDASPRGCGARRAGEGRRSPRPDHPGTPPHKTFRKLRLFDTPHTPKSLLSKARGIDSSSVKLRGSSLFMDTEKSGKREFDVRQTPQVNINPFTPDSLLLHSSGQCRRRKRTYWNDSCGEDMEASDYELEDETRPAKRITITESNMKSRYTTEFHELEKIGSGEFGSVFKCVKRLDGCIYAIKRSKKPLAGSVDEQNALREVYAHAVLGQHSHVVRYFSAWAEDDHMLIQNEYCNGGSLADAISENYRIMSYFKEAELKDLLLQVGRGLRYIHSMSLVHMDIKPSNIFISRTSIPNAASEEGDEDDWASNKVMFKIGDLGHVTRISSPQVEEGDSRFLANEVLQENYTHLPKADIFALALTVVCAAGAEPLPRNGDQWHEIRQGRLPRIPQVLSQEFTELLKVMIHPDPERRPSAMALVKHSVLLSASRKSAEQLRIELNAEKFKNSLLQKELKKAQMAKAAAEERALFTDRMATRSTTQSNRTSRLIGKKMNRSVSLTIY
T4 sequence (Q96SW2 whole entry): as the sequence (Q96SW2 whole entry) above
T4 sequence (Q16531 whole entry partner): as the sequence (Q16531 whole entry partner) above
Experimental: as §1, §2, §3, §4, §5, §6, §7, §8

[5] = biological target: T5, GSPT1 (Homo sapiens, UniProt P15170+Q96SW2); test: Western-blot assay, substrate protein in hPBMCs; assay type: cell-based; conditions: hPBMC cells, 24 hours, tested at 50 nM and 500 nM, table does not say which
T5 construct: endogenous in cells; host or cells: human PBMCs (Milecell Biotechnologies)
T5 sequence (P15170 whole entry): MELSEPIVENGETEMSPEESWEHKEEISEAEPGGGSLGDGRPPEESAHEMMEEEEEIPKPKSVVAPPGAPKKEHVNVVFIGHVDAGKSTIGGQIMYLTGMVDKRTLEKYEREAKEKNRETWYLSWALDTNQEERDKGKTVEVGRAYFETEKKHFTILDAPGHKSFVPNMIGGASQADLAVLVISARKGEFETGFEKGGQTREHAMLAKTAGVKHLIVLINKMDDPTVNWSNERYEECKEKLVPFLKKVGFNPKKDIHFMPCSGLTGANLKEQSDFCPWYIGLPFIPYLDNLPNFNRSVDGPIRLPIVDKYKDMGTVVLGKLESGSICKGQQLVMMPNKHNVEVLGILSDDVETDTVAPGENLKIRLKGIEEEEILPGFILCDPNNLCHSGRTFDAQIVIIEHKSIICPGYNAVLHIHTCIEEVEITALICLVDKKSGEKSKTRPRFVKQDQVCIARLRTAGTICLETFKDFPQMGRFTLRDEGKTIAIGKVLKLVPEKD
T5 sequence (Q96SW2 whole entry): as the sequence (Q96SW2 whole entry) above
T5 sequence (Q16531 whole entry partner): as the sequence (Q16531 whole entry partner) above
Experimental: as §1, §2, §3, §4, §5, §6, §7, §8

| Compound | IC50 [3] [nM] | substrate protein remaining % [1] | substrate protein remaining % [2] | substrate protein remaining % [4] | substrate protein remaining % [5] |
| --- | --- | --- | --- | --- | --- |
| CC1(C)CCC(CN2CCC(Oc3ccc4c(c3)CN(C3CCC(=O)NC3=O)C4=O)CC2)=C(c2ccc(Cl)cc2)C1 (stereo not shown) [GT-07061, 3-(5-((1-((4′-chloro-5,5-dimethyl-3,4,5,6-tetrahydro-[1,1′-biphenyl]-2-yl)methyl)piperidin-4-yl)oxy)-1-oxoisoindolin-2-yl)piperidine-2,6-dione] |  | A (0%≤ substrate protein remaining % ≤80%) |  |  |  |
| O=C1CCC(N2Cc3cc(OC4CC5(CCNCC5)C4)ccc3C2=O)C(=O)N1 (stereo not shown) [GT-07005, 3-(5-((7-azaspiro[3.5]nonan-2-yl)oxy)-1-oxoisoindolin-2-yl)piperidine-2,6-dione] | 1000 to 1900 |  | A (0%≤ substrate protein remaining % ≤80%) |  |  |
| COC1(C)CCC(c2ccc(Cl)cc2)=C(CN2CC(Sc3ccc4c(c3)CN(C3CCC(=O)NC3=O)C4=O)C2)C1 (stereo not shown) [GT-07064, 3-(5-((1-((4′-chloro-4-methoxy-4-methyl-3,4,5,6-tetrahydro-[1,1′-biphenyl]-2-yl)methyl)azetidin-3-yl)thio)-1-oxoisoindolin-2-yl)piperidine-2,6-dione] |  | A (0%≤ substrate protein remaining % ≤80%) |  |  |  |
| O=C1CCC(N2Cc3cc(OC4CCN(Cc5cccc(-c6ccc(Cl)cc6)c5)CC4)ccc3C2=O)C(=O)N1 (stereo not shown) [GT-06228, 3-(5-((1-((4′-chloro-[1,1′-biphenyl]-3-yl)methyl)piperidin-4-yl)oxy)-1-oxoisoindolin-2-yl)piperidine-2,6-dione] |  | A (0%≤ substrate protein remaining % ≤80%) |  | A (0%≤ substrate protein remaining % ≤80%) | A (0%≤ substrate protein remaining % ≤80%) |
| O=C1CCC(N2Cc3cc(SC4CN(C(c5ccccc5)c5ccccc5)C4)ccc3C2=O)C(=O)N1 (stereo not shown) [GT-06138, 3-(5-((1-benzhydrylazetidin-3-yl)thio)-1-oxoisoindolin-2-yl)piperidine-2,6-dione] | 500 to 1000 |  |  | A (0%≤ substrate protein remaining % ≤80%) | A (0%≤ substrate protein remaining % ≤80%) |
| COC1(C)CCC(c2ccc(Cl)cc2)=C(CN2CC(Oc3ccc4c(c3)CN(C3CCC(=O)NC3=O)C4=O)C2)C1 (stereo not shown) [GT-07065, 3-(5-((1-((4′-chloro-4-methoxy-4-methyl-3,4,5,6-tetrahydro-[1,1′-biphenyl]-2-yl)methyl)azetidin-3-yl)oxy)-1-oxoisoindolin-2-yl)piperidine-2,6-dione] |  | A (0%≤ substrate protein remaining % ≤80%) |  |  |  |
| CC1(C)CCC(C(=O)N2CCC(Sc3ccc4c(c3)CN(C3CCC(=O)NC3=O)C4=O)CC2)=C(c2ccc(Cl)cc2)C1 (stereo not shown) [GT-06140, 3-(5-((1-(4′-chloro-5,5-dimethyl-3,4,5,6-tetrahydro-[1,1′-biphenyl]-2-carbonyl)piperidin-4-yl)thio)-1-oxoisoindolin-2-yl)piperidine-2,6-dione] | 500 to 1000 |  |  | A (0%≤ substrate protein remaining % ≤80%) |  |
| O=C1CCC(N2Cc3cc(OC4CN(Cc5cccc(-c6ccc(Cl)cc6)c5)C4)ccc3C2=O)C(=O)N1 (stereo not shown) [GT-06227, 3-(5-((1-((4′-chloro-[1,1′-biphenyl]-3-yl)methyl)azetidin-3-yl)oxy)-1-oxoisoindolin-2-yl)piperidine-2,6-dione] |  | A (0%≤ substrate protein remaining % ≤80%) |  | A (0%≤ substrate protein remaining % ≤80%) | A (0%≤ substrate protein remaining % ≤80%) |
| CC1(C)CCC(CN2CCC(Oc3ccc4c(c3)CN(C3CCC(=O)NC3=O)C4=O)CC2)=C(c2ccc(F)cc2)C1 (stereo not shown) [GT-07062, 3-(5-((1-((4′-fluoro-5,5-dimethyl-3,4,5,6-tetrahydro-[1,1′-biphenyl]-2-yl)methyl)piperidin-4-yl)oxy)-1-oxoisoindolin-2-yl)piperidine-2,6-dione] |  | A (0%≤ substrate protein remaining % ≤80%) |  |  |  |
| O=C1CCC(N2Cc3cc(SC4CCCNCC4)ccc3C2=O)C(=O)N1 (stereo not shown) [GT-06995, 3-(5-(azepan-4-ylthio)-1-oxoisoindolin-2-yl)piperidine-2,6-dione] | 1000 to 1900 | A (0%≤ substrate protein remaining % ≤80%) |  |  |  |
| CC1(C)CCC(CN2CC(Oc3cccc4c3C(=O)N(C3CCC(=O)NC3=O)C4)C2)=C(c2ccc(Cl)cc2)C1 (stereo not shown) [GT-07063] |  | A (0%≤ substrate protein remaining % ≤80%) |  |  |  |

The next lines start with results.

| IC50 [3] [nM] | Compound | substrate protein remaining % [1] | substrate protein remaining % [2] | substrate protein remaining % [4] | substrate protein remaining % [5] |
| --- | --- | --- | --- | --- | --- |
| < 500 | O=C1CCC(N2Cc3cc(OC4CCN(C(=O)c5ccccc5-c5ccc(Cl)cc5)C4)ccc3C2=O)C(=O)N1 (stereo not shown) [GT-06818, 3-(5-((1-(4′-chloro-[1,1′-biphenyl]-2-carbonyl)pyrrolidin-3-yl)oxy)-1-oxoisoindolin-2-yl)piperidine-2,6-dione] | A (0%≤ substrate protein remaining % ≤80%) |  | A (0%≤ substrate protein remaining % ≤80%) | A (0%≤ substrate protein remaining % ≤80%) |
| < 500 | O=C1CCC(N2Cc3cc(OC4CC5CN(Cc6ccccc6-c6ccc(Cl)cc6)CC5C4)ccc3C2=O)C(=O)N1 (stereo not shown) [GT-06953, 3-(5-((2-((4′-chloro-[1,1′-biphenyl]-2-yl)methyl)octahydrocyclopenta [c]pyrrol-5-yl)oxy)-1-oxoisoindolin-2-yl)piperidine-2,6-dione] | A (0%≤ substrate protein remaining % ≤80%) |  | A (0%≤ substrate protein remaining % ≤80%) |  |
| 500 to 1000 | O=C1CCC(N2Cc3cc(OC4CN(Cc5ccc(-c6ccc(Cl)cc6)cc5)C4)ccc3C2=O)C(=O)N1 (stereo not shown) [GT-06230, 3-(5-((1-((4′-chloro-[1,1′-biphenyl]-4-yl)methyl)azetidin-3-yl)oxy)-1-oxoisoindolin-2-yl)piperidine-2,6-dione] | A (0%≤ substrate protein remaining % ≤80%) |  | A (0%≤ substrate protein remaining % ≤80%) | A (0%≤ substrate protein remaining % ≤80%) |
| 500 to 1000 | O=C1CCC(N2Cc3cc(OC4CN(C(c5ccc(F)cc5)c5ccc(F)cc5)C4)ccc3C2=O)C(=O)N1 (stereo not shown) [GT-06519, 3-(5-((1-(bis(4-fluorophenyl)methyl)azetidin-3-yl)oxy)-1-oxoisoindolin-2-yl)piperidine-2,6-dione] | A (0%≤ substrate protein remaining % ≤80%) |  |  |  |
| 1000 to 1900 | CC1(C)CCC(CN2CCCC(Sc3ccc4c(c3)CN(C3CCC(=O)NC3=O)C4=O)CC2)=C(c2ccc(Cl)cc2)C1 (stereo not shown) [GT-06641, 3-(5-((1-((4′-chloro-5,5-dimethyl-3,4,5,6-tetrahydro-[1,1′-biphenyl]-2-yl)methyl)azepan-4-yl)thio)-1-oxoisoindolin-2-yl)piperidine-2,6-dione] |  | A (0%≤ substrate protein remaining % ≤80%) |  |  |
| 500 to 1000 | CC1(C)CCC(C(=O)N2CCC3(CC2)CC(Oc2ccc4c(c2)CN(C2CCC(=O)NC2=O)C4=O)C3)=C(c2ccc(Cl)cc2)C1 (stereo not shown) [GT-07020, 3-(5-((7-(4′-chloro-5,5-dimethyl-3,4,5,6-tetrahydro-[1,1′-biphenyl]-2-carbonyl)-7-azaspiro[3.5]nonan-2-yl)oxy)-1-oxoisoindolin-2-yl)piperidine-2,6-dione] |  |  | A (0%≤ substrate protein remaining % ≤80%) | A (0%≤ substrate protein remaining % ≤80%) |
| 500 to 1000 | O=C1CCC(N2Cc3cc(OC4CN(CC5=C(c6ccc(Cl)cc6)CCC(F)(F)C5)C4)ccc3C2=O)C(=O)N1 (stereo not shown) [GT-06563, 3-(5-((1-((4′-chloro-4,4-difluoro-3,4,5,6-tetrahydro-[1,1′-biphenyl]-2-yl)methyl)azetidin-3-yl)oxy)-1-oxoisoindolin-2-yl)piperidine-2,6-dione] |  |  | A (0%≤ substrate protein remaining % ≤80%) |  |
